Key:
[1] = Log D by octanol/aqueous buffer partitioning; format: physicochemical; conditions: pH 7.4, 1-octanol/buffer
Outline: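 1-Octanol and aqueous buffer (1:1) with test compound, 0.15 mM DMSO stock; shaken 1 hr at room temperature, equilibrated 20 min, centrifuged for phase separation. Both phases analysed by HPLC-UV; Log D = log(octanol area/buffer area).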

[2] = In vivo pharmacokinetic properties in rats (IV and PO); parameters: species or system male Sprague Dawley rats
Outline: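 Male Sprague Dawley rats received 2.00 mg/kg IV via the tail vein, with plasma sampled from a cannulated jugular vein from 0.083 to 24 h. Oral dosing was 10 mg/kg in rats or C57BL/6J mice, sampled at 0.25-24 h by jugular cannula (rats) or retro-orbital plexus (mice).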

[3] = In vivo pharmacokinetic properties in mice (IV and PO); parameters: species or system C57BL/6J mice; conditions: mouse, in vivo
Outline: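 Male C57BL/6J mice received 10 mg/kg orally; plasma sampled by retro-orbital capillary at 0.25–24 h. IV dosing described at 2.00 mg/kg via tail vein, plasma sampled 0.083–24 h.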

[4] = test system: liver gene expression (ACACA, ACLY, FASN, LSS, PNPLA3); experiment: Liver gene expression in mice after oral administration; format: in vivo; conditions: vs vehicle
Outline: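 Mice were dosed by oral gavage with compounds in 0.5% methylcellulose, with 5% N-methyl pyrrolidone added when needed, and unperfused livers were collected at 6 or 24 h. Liver RNA was reverse-transcribed with random primers and ACACA, ACLY, FASN, LSS and PNPLA3 were measured by qPCR. Fold change versus vehicle was derived by ΔΔCT, and the mean of the five genes is reported as Total Fold Change.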

LogD [1]: 3.56 | Intravenous Delivery (IV) CL ([2]; IV, 2 mg/kg): 30.1 mL/min/kg | Intravenous Delivery (IV) T1/2 ([2]; IV, 2 mg/kg): 1.53 h | Intravenous Delivery (IV) Vd ([2]; IV, 2 mg/kg): 4.02 L/kg | % F (Bioavailability of oral delivery) ([2]; PO 10 mg/kg vs IV 2 mg/kg): 24% | Oral Administration (PO) AUC0-last ([2]; PO, 10 mg/kg): 1307 | Oral Administration (PO) T1/2 ([2]; PO, 10 mg/kg): 5.1 h | Oral Administration (PO) Tmax ([2]; PO, 10 mg/kg): 1.67 h | % F (Bioavailability of oral delivery) [3]: 58% | Intravenous Delivery (IV) AUC0-last ([3]; iv, 2 mg/kg): 1900 ng·h/mL | Intravenous Delivery (IV) CL ([3]; iv, 2 mg/kg): 17.5 mL/min/kg | Intravenous Delivery (IV) T1/2 ([3]; iv, 2 mg/kg): 3.39 h | Intravenous Delivery (IV) Vd ([3]; iv, 2 mg/kg): 5.13 L/kg | Oral Administration (PO) AUC0-last ([3]; po, 10 mg/kg): 5400 ng·h/mL | Oral Administration (PO) T1/2 ([3]; po, 10 mg/kg): 4.72 h | Oral Administration (PO) Tmax ([3]; po, 10 mg/kg): 1 h
SMILES: CC(C)(C)c1cc(-c2cncc(-c3ccc(C(=O)N4CCC(O)CC4)cc3Cl)c2)ccn1 [Compound Z-725]
Total Gene FC Time (6 h) ([4]; 10 mpk): +++ (0-0.509 = +++) | Total Gene FC Time (24 h) ([4]; 10 mpk): + (>0.751 = +) | Total Gene FC Time (6 h) ([4]; 30 mpk): +++ (0-0.509 = +++) | Total Gene FC Time (24 h) ([4]; 30 mpk): + (>0.751 = +)
